A short description of one data set: physchem. Conditions: PBS (99%) with DMSO (1%), 37 °C, aqueous buffer, kinetic from dmso stock, kinetic solubility.
The nature of data set [1]: Plasma stability, human plasma. Particulars: 37 °C; for remaining at 1 h, 5 μM: read-out: Plasma Stability % Remaining Compound, human, 1 h; for remaining at 6 h, 5 μM: read-out: Plasma Stability % Remaining Compound, human, 6 h. The format is in vitro ADME.
Data set [2] is described as follows: Fish embryo acute toxicity (FET) test in zebrafish embryos. The format is in vivo. Particulars: in vivo, other: embryos exposed by immersion in the test solution, pH 7.4, 72 h of exposure, read-out: LC50 (CI95). As to the method:
Test solutions were freshly prepared for each experiment and were renewed every 24 h. The maximum tested compound concentration was 100 µM and four additional concentrations were also prepared by applying a 1:2 dilution factor. A 1% DMSO solution was used as a vehicle control.
Six-well plates were incubated at 26 ± 1 °C under a 14:10 light:dark cycle for 72 h. To assess the potential lethality of the new compounds, we followed, every 24 h, the four parameters that are outlined in the OECD Guideline No. 236: embryo coagulation, lack of somite formation, non-detachment of the tail, and absence of a heartbeat (from 48 h onward). The percentage of lethality at each concentration that was tested for the new compounds was recorded and expressed as mean ± SEM from three or more independent experiments. […] LOAEC values were determined through an ANOVA test with Bonferroni’s post-hoc test for multiple comparisons (significance threshold: p < 0.05).

Data set [3] is described as follows: Plasma stability, mouse plasma. The data set is classed as in vitro ADME. Particulars: 37 °C; for remaining at 1 h, 5 μM: read-out: Plasma Stability % Remaining Compound, mouse, 1 h; for remaining at 6 h, 5 μM: read-out: Plasma Stability % Remaining Compound, mouse, 6 h. As to the method:
The plasma stability of the new compounds was tested using in human, mouse, and rat plasma (Seralab). One hundred μL of 5 μM solutions of the new compounds in plasma were plated and incubated at 37 °C for 0, 60, 120, and 360 min, and then treated with 300 μL of acetonitrile and centrifuged (4000× g; 60 min; 4 °C). Sample quantification was performed by UPLC/MS/MS analysis of the resulting supernatant using a UPLC QSM Waters Acquity apparatus, equipped with a Waters ACQUITY BEH C18 1.7 μm 2.1 × 50 mm column, eluting with 0.1% formic acid in water or in acetonitrile, with a flow of 0.6 mL/min. The gradient indicated in Table 1 was used in this assay.
Compound concentration was calculated from the MS peak areas and expressed as the percentage of remaining compound at the different tested times.

In another data set the target is T1, tau aggregation (Homo sapiens, UniProt P10636).
T1 construct: expressed in transfected cells; host or cells: E. coli BL21 (DE3) bearing pTARA and pRKT42
T1 sequence (P10636 other isoform, or with tags, fused parts or gaps): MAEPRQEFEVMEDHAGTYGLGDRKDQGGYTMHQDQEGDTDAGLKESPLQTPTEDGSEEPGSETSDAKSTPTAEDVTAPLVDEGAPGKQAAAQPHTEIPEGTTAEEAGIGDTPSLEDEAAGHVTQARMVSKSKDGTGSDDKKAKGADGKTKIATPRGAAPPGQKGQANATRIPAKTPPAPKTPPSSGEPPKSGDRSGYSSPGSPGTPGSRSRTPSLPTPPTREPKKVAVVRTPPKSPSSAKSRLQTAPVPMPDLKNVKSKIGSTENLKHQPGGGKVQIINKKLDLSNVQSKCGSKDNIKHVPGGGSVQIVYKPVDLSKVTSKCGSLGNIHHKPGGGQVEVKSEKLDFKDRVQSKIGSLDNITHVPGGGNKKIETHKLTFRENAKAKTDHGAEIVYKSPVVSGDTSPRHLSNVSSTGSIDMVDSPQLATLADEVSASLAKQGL
The data set is described as follows: Tau aggregation inhibition in genetically modified E. coli cells (Th-S fluorescence). The data set is classed as cell-based, Escherichia coli. Particulars: live E. coli cells overexpressing tau; for inhibition at 10 µM: read-out: Tau Aggregation % inh. @10 µM. The procedure: For tau overexpression, M9 minimal medium (10 mL) containing glucose (0.5%), ampicillin (50 μg/mL), chloramphenicol (12.5 μg/mL), and E. coli BL21 (DE3) cells bearing the pTARA plasmid, which carries the RNA polymerase gene of the T7 phage (T7RP) under control of the PBAD promoter, and subsequent transformation with the pRKT42 vector were used instead. In this case, the overnight culture for a 1:500 dilution was added to fresh M9 minimal medium containing glucose (0.5%), chloramphenicol (12.5 μg/mL), ampicillin (50 μg/mL), and Th-S (250 µM).
For Aβ42 overexpression, the corresponding E. coli cell cultures were kept growing overnight (37 °C; 250 rpm) until they reached an OD600 = 0.6. These cultures (980 μL) were added to a mixture of 10 μL of a solution of the new compounds in DMSO and 10 μL of 100 mM isopropyl 1-thio-β-D-galactopyranoside (IPTG), to reach a final compound concentration of 10 μM. The same procedure was used for tau overexpression but employing 10 μL of 25% arabinose instead of IPTG. The resulting E. coli cultures were kept growing overnight (37 °C; 1400 rpm) using an Eppendorf Thermomixer (Hamburg, Germany). To prepare a negative control for the assay, showing the highest amount of the amyloidogenic protein, the same quantity of DMSO, without the compounds to be tested, was added to the sample. With the double purpose of obtaining positive controls devoid of the amyloidogenic proteins and assessing the potential intrinsic toxicity of the new compounds, we also prepared samples that had not been treated with either IPTG or arabinose (non-induced samples).
To assess the inhibitory activity of compounds 4–7 on Aβ42 and tau aggregation within E. coli cells, a fluorescence assay was employed, using Th-S ([…] stock solution, T1892, Sigma, St. Louis, MO, USA) in double-distilled water (Milli-Q system, Millipore, Bay City, MI, USA) and an Aminco Bowman Series 2 luminescence spectrophotometer (Aminco-Bowman AB2, SLM Aminco, Rochester, NY, USA), working at 25 °C in the wavelength range of 460–600 nm, with λex = 445 nm, slit widths of 4 nm, and λem = 485 nm. The results are given as the average of nine independent experiments, each performed in triplicate.

A short description of another data set: in vitro. Particulars: PAMPA, PAMPA-BBB.
Data set [4] deals with T2, human recombinant AChE (hAChE) (Homo sapiens, UniProt P22303).
T2 construct: purchased Sigma (Milan, Italy)
T2 sequence (P22303 32-614): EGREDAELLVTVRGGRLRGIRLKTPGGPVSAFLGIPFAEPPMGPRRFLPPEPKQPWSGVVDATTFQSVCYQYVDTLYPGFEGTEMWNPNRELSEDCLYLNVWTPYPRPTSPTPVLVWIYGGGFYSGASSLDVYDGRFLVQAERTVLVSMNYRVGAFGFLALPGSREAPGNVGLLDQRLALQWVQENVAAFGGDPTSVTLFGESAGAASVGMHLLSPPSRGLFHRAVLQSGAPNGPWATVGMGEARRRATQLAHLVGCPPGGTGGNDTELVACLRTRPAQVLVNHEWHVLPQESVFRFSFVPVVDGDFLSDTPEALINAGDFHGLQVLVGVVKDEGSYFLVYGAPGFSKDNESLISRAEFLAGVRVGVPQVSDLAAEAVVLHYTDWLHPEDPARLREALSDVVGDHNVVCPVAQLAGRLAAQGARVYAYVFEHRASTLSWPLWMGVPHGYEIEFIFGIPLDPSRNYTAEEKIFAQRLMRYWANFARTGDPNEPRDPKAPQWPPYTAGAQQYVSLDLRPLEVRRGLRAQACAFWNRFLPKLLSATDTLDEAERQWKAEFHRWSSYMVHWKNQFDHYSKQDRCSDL
The data set can be described thus: biochemical. Conditions: for AChE vs. BChE selectivity: hBChE IC50 relative to hAChE IC50; for IC50: human recombinant AChE, Ellman method, mean ± standard error.
Method: (§1) The stock and assay solutions were prepared as follows:
Stock hAChE solution: solution of the lyophilized powder in 0.1% Triton X-100/0.1 M potassium phosphate (pH 8.0).
(§2) Stock solutions of the new compounds: 1 mM solutions in methanol, with further dilutions in this solvent to the desired concentrations.

Another data set addresses T3, human serum BChE (hBChE) (Homo sapiens, UniProt P06276).
T3 construct: human serum BChE (hBChE); purchased Sigma (Milan, Italy); host or cells: human serum
The data set is described as follows: biochemical. Conditions: for IC50: human serum BChE, Ellman method, mean ± standard error; for increase in hBChE inhibitory activity relative to hybrid 3: relative to dihydroxyanthraquinone hybrid 3.

The mark [5] stands for this setting: Solubility class, classification after ref 70.
[6] abbreviates: Solubility, 2 h, DMSO (1%)/PBS (99%).
Where [7] appears, read: Solubility, 2 h, PBS with 1% DMSO, nephelometry.
Setting [8] is: Brain permeability class, Table 4.
Setting [9] is: Brain Permeability Pe, mean ± SD.

“And” between values parts separate entries of the source, which are not always exact repeats. Equal values may be shown once. Where only a bound is given, the exact number is not on record here.

T3 sequence (P06276 29-602): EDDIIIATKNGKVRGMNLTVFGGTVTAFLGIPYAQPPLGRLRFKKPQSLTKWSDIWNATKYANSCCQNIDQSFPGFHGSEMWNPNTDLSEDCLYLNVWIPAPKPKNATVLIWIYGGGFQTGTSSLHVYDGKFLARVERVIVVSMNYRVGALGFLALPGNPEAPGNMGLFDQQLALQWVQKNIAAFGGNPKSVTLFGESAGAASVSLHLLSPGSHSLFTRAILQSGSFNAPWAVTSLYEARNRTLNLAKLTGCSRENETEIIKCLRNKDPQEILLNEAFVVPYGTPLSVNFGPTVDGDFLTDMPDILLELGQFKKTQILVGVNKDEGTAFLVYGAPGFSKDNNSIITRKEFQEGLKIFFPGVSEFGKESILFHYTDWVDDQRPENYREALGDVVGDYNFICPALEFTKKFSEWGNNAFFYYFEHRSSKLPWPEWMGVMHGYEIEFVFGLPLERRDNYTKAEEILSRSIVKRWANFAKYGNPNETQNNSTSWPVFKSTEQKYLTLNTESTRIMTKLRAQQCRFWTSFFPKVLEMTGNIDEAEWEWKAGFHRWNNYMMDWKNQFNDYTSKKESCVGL
Method for human serum BChE (hBChE): as §1
Stock hBChE solution: solution of the lyophilized powder in 0.1% aq. gelatin.
as §2
Method for in vitro: The parallel artificial membrane permeability assay for the blood–brain barrier (PAMPA-BBB) [41] was used to assess the in vitro brain permeability of the new compounds. For the assay, the compounds were dissolved in mixtures of PBS and ethanol (70:30).
Method for physchem: The resulting solutions were incubated at 37 °C. After 2 h incubation, the samples were read using a BMG LABTECH NEPHELOstar Plus laser nephelometer (Ortenberg, Germany).

On to `CC1=CC2Cc3nc4cc(Cl)ccc4c(NCCCCCCCCCNC(=O)c4cc(O)c5c(c4)C(=O)c4cccc(O)c4C5=O)c3C(C1)C2` (stereo not shown) [Compound 3], for which the solubility at 2 h in “physchem” (setting [5]) is under 10 µg/mL; in the data set “physchem” (setting [6]), 6.3 µg/mL; in “physchem” (setting [7]), 8.6 µM. Moreover, the amount remaining at 1 h, 5 μM in data set [1] was found to be 100%; in data set [3], 97.2%. Besides, in data set [1] (6 h), the “% hydrolyzed in human plasma after 6 h” value is 15.6%. Also, the LC50 at 72 h in data set [2] is over 100000 nM. Besides, in data set [3], the fraction remaining at 6 h, 5 μM is 92.9%. Further, on tau aggregation, the inhibition at 10 µM turned out to be 58.2 ± 1.8%. For the same molecule, in the data set “in vitro” (setting [8]), the Papp is over 5.2 ×10⁻⁶ cm/s.

Consider `CC1=CC2Cc3nc4cc(Cl)ccc4c(NCCCCCCCCCNC(=O)c4ccc5c(c4)C(=O)c4ccccc4C5=O)c3C(C1)C2` (stereo not shown) [Compound 4, N-{9-[(3-Chloro-6,7,10,11-tetrahydro-9-methyl-7,11-methanocycloocta[b]quinolin-12-yl)amino]nonyl}anthraquinone-2-carboxamide], for which the figures for the solubility at 2 h in “physchem” (setting [5]), in “physchem” (setting [6]) and in the data set “physchem” (setting [7]) were under 10 µg/mL, 5.9 µg/mL and 8.4 µM, respectively. For the same molecule, in data set [4], the “AChE vs. BChE selectivity” value was determined as 181. Moreover, the half-inhibitory concentration (IC50) in data set [4] stood at 6.91 ± 0.77 nM; against human serum BChE (hBChE), 1250 ± 130 nM. Besides, the values for the fraction remaining at 1 h, 5 μM in data set [1] and in data set [3] were 94.2% and 96%, respectively. Besides, the fraction remaining at 6 h, 5 μM came to 97.6% in data set [1] (6 h) and 90.1% in data set [3]. Moreover, in data set [2], the LC50 at 72 h was over 100000 nM. Further, at tau aggregation, the inhibition at 10 µM was 63 ± 3.5%. In addition, the Papp in the data set “in vitro” (setting [9]) is 9.2 ± 1.2 ×10⁻⁶ cm/s; in the data set “in vitro” (setting [8]), over 5.2 ×10⁻⁶ cm/s.

For the molecule `CC1=CC2Cc3nc4cc(Cl)ccc4c(NCCCCCCCCCNC(=O)c4ccc5c(c4)C(=O)c4ccccc4-5)c3C(C1)C2` (stereo not shown) [Compound 5, N-{9-[(3-Chloro-6,7,10,11-tetrahydro-9-methyl-7,11-methanocycloocta[b]quinolin-12-yl)amino]nonyl}-9-fluorenone-2-carboxamide], the results for the solubility at 2 h in the data set “physchem” (setting [5]), in “physchem” (setting [6]) and in “physchem” (setting [7]) were under 10 µg/mL, 5.4 µg/mL and 8.1 µM, respectively. Further, the “AChE vs. BChE selectivity” value in data set [4] is 149. Moreover, the IC50 in data set [4] was found to be 5.93 ± 0.26 nM; against human serum BChE (hBChE) it was 883 ± 55 nM. Further, the values for the amount remaining at 1 h, 5 μM in data set [1] and in data set [3] were 88.5% and 95.7%, respectively. Besides, the share remaining at 6 h, 5 μM in data set [1] (6 h) was determined as 80.4%; in data set [3], 90.4%. Further, the LC50 at 72 h in data set [2] is over 100000 nM. For the same molecule, at tau aggregation, the inhibition at 10 µM was determined as 68.9 ± 2.1%. Further, the figures for the Papp in the data set “in vitro” (setting [9]) and in “in vitro” (setting [8]) were 6.2 ± 0.8 ×10⁻⁶ cm/s and over 5.2 ×10⁻⁶ cm/s, respectively.

On to `CC1=CC2Cc3nc4cc(Cl)ccc4c(NCCCCCCCCCNC(=O)c4cccc(C(=O)c5ccccc5)c4)c3C(C1)C2` (stereo not shown) [Compound 6, 3-Benzoyl-N-{9-[(3-chloro-6,7,10,11-tetrahydro-9-methyl-7,11-methanocycloocta[b]quinolin-12-yl)amino]nonyl}benzamide], for which the solubility at 2 h in the data set “physchem” (setting [5]) is under 10 µg/mL; in “physchem” (setting [6]) it was 8.4 µg/mL; in “physchem” (setting [7]), 12.5 µM. In addition, the IC50 is 11.6 ± 0.9 nM in data set [4] and 16.5 ± 1.9 nM against human serum BChE (hBChE). Besides, the amount remaining at 1 h, 5 μM was 100% in data set [1] and 98.3% in data set [3]. Further, the fraction remaining at 6 h, 5 μM is 90.8% in data set [1] (6 h) and 76.9% in data set [3]. The median lethal concentration (LC50) at 72 h in data set [2] was determined as 40100 nM. Also, on tau aggregation, the inhibition at 10 µM is 62.5 ± 2.1%. In addition, the “increase in hBChE inhibitory activity relative to hybrid 3” value at human serum BChE (hBChE) was 40–50 fold. In addition, the values for the Papp in “in vitro” (setting [9]) and in “in vitro” (setting [8]) were 7.4 ± 0.3 ×10⁻⁶ cm/s and over 5.2 ×10⁻⁶ cm/s, respectively.

For the molecule `CC(=O)c1cccc(C(=O)NCCCCCCCCCNc2c3c(nc4cc(Cl)ccc24)CC2C=C(C)CC3C2)c1` (stereo not shown) [Compound 7, 3-Acetyl-N-{9-[(3-chloro-6,7,10,11-tetrahydro-9-methyl-7,11-methanocycloocta[b]quinolin-12-yl)amino]nonyl}benzamide], the values for the solubility at 2 h in the data set “physchem” (setting [5]), in “physchem” (setting [6]) and in “physchem” (setting [7]) were 10 to 100 µg/mL, 11 µg/mL and 18 µM, respectively. Also, the IC50 in data set [4] was 6 nM and 5.97 nM; against human serum BChE (hBChE), 13 nM and 12.7 nM. Moreover, the amount remaining at 1 h, 5 μM in data set [1] worked out at 100%; in data set [3], 97.5%. Moreover, the share remaining at 6 h, 5 μM in data set [1] (6 h) came out at 100%; in data set [3], 96%. Also, the 50% lethal concentration (LC50) at 72 h in data set [2] is over 100000 nM. For the same molecule, the “Tau Aggregation % inh. @10 µM” value on tau aggregation is 68.3 ± 3.1%. Also, the inhibition at 10 µM at tau aggregation turned out to be 68%. Also, the “increase in hBChE inhibitory activity relative to hybrid 3” value at human serum BChE (hBChE) is 40–50 fold. The apparent permeability coefficient (Papp) is 16.5 ± 1.1 ×10⁻⁶ cm/s in the data set “in vitro” (setting [9]) and over 5.2 ×10⁻⁶ cm/s in the data set “in vitro” (setting [8]).

Source of the values: article PMC11359831, “Stepwise Structural Simplification of the Dihydroxyanthraquinone Moiety of a Multitarget Rhein-Based Anti-Alzheimer Lead to Improve Drug Metabolism and Pharmacokinetic Properties” (Pharmaceutics, 2024).
